Results from patent US6506738B1, “Benzimidazolone antiviral agents” (Bristol-Myers Squibb Company, priority 2000, dated 2003).

How the values were obtained:
[1] = system: respiratory syncytial virus Long strain; assay: Antiviral activity against respiratory syncytial virus in HEp-2 cells (MTT cell protection); assay type: cell-based
Procedure: The antiviral activity of these compounds against respiratory syncytial virus was determined in HEp-2 (ATCC CCL 23) cells that were seeded in 96 well microtiter plates at 1.5×10^4 cells/100 μL/well in DMEM (Dulbecco's Modified Eagle's Medium) supplemented with penicillin, streptomycin, glutamine, and 10% fetal bovine serum. The cells were incubated overnight at 37° C., the culture medium was removed, and cells were infected (100 μL volume in medium containing 2% fetal bovine serum) with respiratory syncytial virus Long strain at 5000 plaque forming units/mL. The compounds, 100 μL at appropriate dilution, were added to the cells 1 hour post infection. After incubation for 4 days at 37° C., the plates were stained with MTT solution (3-[4,5-dimethlythiazol-2-yl]-2,5-diphenyltetrazolium bromide) and incubated for 4 hours at 37° C. The media was aspirated from the cells and 100 μL/well of acidified isopropanol (per liter: 900 mL isopropanol, 100 mL Triton×100, and 4 mL conc. HCl) was added. Plates were incubated for 15 minutes at room temperature with shaking, and an optical density (OD 540) reading at 540 nanometer (nm) was obtained. The optical density reading is proportional to the number of viable cells. The increase in the number of viable cells reflects the protective, antiviral activity of the compound. […]

Compound | melting point [°C] | cell protection ([1]; at 2.5 μg/mL (corresponding to 10.2 μM), HEp-2 cells, RSV Long strain) [%] | EC50 ([1]; human respiratory syncytial virus, HEp-2 cells infected with RSV Long strain, compound added 1 hour post infection, 4 days, read-out: EC50 (concentration that produces 50% cell protection)) [nM]
O=c1[nH]c2ccccc2n1Cc1nc2ccccc2n1CCn1cnnn1 [Compound 184] | > 200 |  | 
NC(=O)c1ncn([C@@H]2O[C@H](CO)[C@@H](O)[C@H]2O)n1 [Ribavirin] |  | 100 | 3000
